Like-named read-outs stand apart in the source and are kept apart here.
Experiments:
[1] = Solubility evaluation in toluene; type: physicochemical
Description: Solubility evaluation were performed at 25° C. using toluene as solvent.

[2] = Glass transition temperature by DSC; type: physicochemical
Description: The glass transition temperatures Tg were measured using a TA instruments 2920 DSC equipment and data evaluation were done with the TA Instruments Universal Analysis 2000 software.

| Toluene solubility S at 25° C. ([1]; listed as Ir(2-PhQ)3) [wt %] | Tg [2] [°C] | Compound | Toluene solubility S at 25° C. [1] |
| --- | --- | --- | --- |
| < 0.02 |  | [Ir+3].[c-]1ccccc1-c1ccc2ccccc2n1.[c-]1ccccc1-c1ccc2ccccc2n1.[c-]1ccccc1-c1ccc2ccccc2n1 [[Ir(2-PhQ)3], reference compound] | S < 0.02 wt % |
|  |  | [Ir(2-PhQ)2(DMC2)] | S > 0.25 wt % |
|  | 54 | [Ir(n-hexPhQ)3] [reference compound] |  |

From patent publication US9159937B2, “Heteroleptic light-emitting complexes” (SOLVAY SA, priority 2011, dated 2015)
